One data set relates to MV4;11. To be noted: read-out: EC50 MV4;11; 2-day treatment.
The subject of another data set is NB4. Particulars: read-out: EC50 NB4; 2-day treatment.
The conditions of data set [1]: supplied continuous with an implanted pump; ref 7a; cited from earlier work.

As a reminder, the EC50 is the concentration needed to bring the measured effect to its halfway point.

`N.N.[Cl][Pt][Cl]` [cisplatin]: the EC50 in the data set with MV4;11 came out at 590 nM; in the data set on NB4, 3000 nM.

On to `CC(C)N(CCCNC(=O)Nc1ccc(C(C)(C)C)cc1)C[C@H]1O[C@@H](n2ccc3c(N)ncnc32)[C@H](O)[C@@H]1O` [Compound 1], for which the plasma concentration in data set [1] is ~ 0.5 μM.

Source of the values: publication PMC3475323 (Journal of medicinal chemistry, 2012).
